Data as given in ChEMBL document CHEMBL4007392, “Modulating Mineralocorticoid Receptor with Non-steroidal Antagonists. New Opportunities for the Development of Potent and Selective Ligands without Off-Target Side Effects” (J Med Chem, 2017).

molecular target: T1, Mineralocorticoid receptor (Homo sapiens, UniProt P08235); experiment: Antagonist activity at Gal4-fused human MR LBD (671 to 984 residues) expressed in African Green Monkey CV-1 cells assessed as inhibition of aldosterone-induced transactivation activity after 20 hrs by luciferase reporter gene assay; format: cell-based
T1 sequence (P08235 whole entry): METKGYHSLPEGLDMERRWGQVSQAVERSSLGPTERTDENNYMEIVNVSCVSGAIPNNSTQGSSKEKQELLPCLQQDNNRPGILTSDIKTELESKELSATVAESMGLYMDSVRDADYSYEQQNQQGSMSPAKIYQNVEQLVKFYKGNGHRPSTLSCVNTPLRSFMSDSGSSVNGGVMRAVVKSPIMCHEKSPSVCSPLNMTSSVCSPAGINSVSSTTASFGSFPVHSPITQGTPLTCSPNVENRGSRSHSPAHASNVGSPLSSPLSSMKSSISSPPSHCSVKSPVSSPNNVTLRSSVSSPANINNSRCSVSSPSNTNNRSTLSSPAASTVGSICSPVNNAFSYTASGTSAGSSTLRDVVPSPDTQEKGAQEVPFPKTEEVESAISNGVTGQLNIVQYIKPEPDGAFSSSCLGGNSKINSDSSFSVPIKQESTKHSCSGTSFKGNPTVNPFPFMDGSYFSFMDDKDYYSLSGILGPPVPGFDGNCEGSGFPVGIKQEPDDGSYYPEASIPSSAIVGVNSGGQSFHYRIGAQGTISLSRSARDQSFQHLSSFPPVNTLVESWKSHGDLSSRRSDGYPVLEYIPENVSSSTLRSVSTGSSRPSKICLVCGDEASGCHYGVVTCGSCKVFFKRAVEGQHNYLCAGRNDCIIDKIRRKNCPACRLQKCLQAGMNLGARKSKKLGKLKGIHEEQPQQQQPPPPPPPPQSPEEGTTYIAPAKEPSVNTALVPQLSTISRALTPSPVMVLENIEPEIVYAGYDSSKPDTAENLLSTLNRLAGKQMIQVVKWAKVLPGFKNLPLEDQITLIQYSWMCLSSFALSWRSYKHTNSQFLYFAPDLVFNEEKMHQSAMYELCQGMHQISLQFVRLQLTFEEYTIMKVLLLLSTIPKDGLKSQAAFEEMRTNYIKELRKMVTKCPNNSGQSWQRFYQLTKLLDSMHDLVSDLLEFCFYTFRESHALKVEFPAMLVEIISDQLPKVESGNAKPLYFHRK

| SMILES | IC50 [nM] |
| --- | --- |
| Cc1[nH]c(C(=O)Nc2ccc(S(C)(=O)=O)cc2)c(C)c1-c1ccccc1C(F)(F)F | < 500 |
| Cc1c(C(=O)Nc2ccc(S(C)(=O)=O)cc2)cc(CCO)n1-c1ccc(Cl)cc1C(F)(F)F (single isomer, unassigned; atropisomer 2) | > 1000 |
| Cc1c(C(=O)Nc2ccc(S(C)(=O)=O)cc2)cn([C@H](C)[C@H](C)O)c1-c1ccc(F)cc1C(F)(F)F (single isomer, unassigned; atropisomer 2) | > 1000 |
| Cc1cc(C(=O)Nc2ccc(S(N)(=O)=O)cc2)c(C)n1-c1ccccc1C(F)(F)F | < 500 |
| Cc1c(C(=O)Nc2ccc(S(C)(=O)=O)cc2)cc([C@H](C)[C@H](C)O)n1-c1ccc(F)cc1C(F)(F)F (mixture of isomers) | 6.2 |
| Cc1cc(C(=O)NCCc2ccccc2)c(C)n1-c1ccccc1C(F)(F)F | < 500 |
| Cc1c(C(=O)Nc2ccc(S(C)(=O)=O)cc2)cn([C@H](C)[C@H](C)O)c1-c1ccc(F)cc1C(F)(F)F | 3.8 |
| Cc1c(C(=O)Nc2ccc(S(C)(=O)=O)cc2)cc(C[C@H](C)O)n1-c1ccc(Cl)cc1C(F)(F)F (single isomer, unassigned; atropisomer 2) | > 1000 |
| Cc1cc(C(=O)Nc2cccc3ccccc23)c(C)n1-c1ccccc1C(F)(F)F | < 500 |
| Cc1c(C(=O)Nc2ccc(S(C)(=O)=O)cc2)cc(C[C@H](C)O)n1-c1ccc(Cl)cc1-c1ccc(F)cc1 (single isomer, unassigned; atropisomer 2) | > 1000 |
| Cc1c(C(=O)Nc2ccc(S(C)(=O)=O)cc2)cc(CCF)n1-c1ccc(F)cc1OC(F)F (single isomer, unassigned; atropisomer 2) | > 1000 |
| Cc1ccc(NC(=O)c2cc(C)n(-c3ccccc3C(F)(F)F)c2C)cc1Cl | < 500 |

molecular target: T1, Mineralocorticoid receptor; experiment: Antagonist activity at Gal4-fused human MR LBD (734 to 985 residues) expressed in CHO-K1 cells after 5 to 6 hrs by luciferase reporter gene assay; format: cell-based

| SMILES | IC50 [nM] |
| --- | --- |
| CC1=C(C#N)C(c2cccc3c2-c2ccccc2C3=O)C(C(=O)OC(C)C)=C(C)N1 (centres undefined) | 23 |
| COC(=O)c1c(C)nc(C)c(C(=O)CC2CCC2)c1-c1cccc2c(=O)cc(C)oc12 | 18 |
| CCc1cnc2cccc(C3C(C#N)=C(C)NC(C)=C3C(=O)OC(C)C)c2c1 (centres undefined) | 310 |
| CC(=O)C1=C(C)NC(C)=C(C(=O)OC2CCC2)[C@@H]1c1cccc2c(=O)cc(C)oc12 | 7 |

molecular target: T1, Mineralocorticoid receptor; experiment: Displacement of [3H]-Aldosterone from MR overexpressed in human 293 cells measured after 2 hrs by Microbeta scintillation counting method; format: cell-based

| SMILES | Ki [nM] |
| --- | --- |
| N#C/N=c1/[nH]c2cc(/C=C3/c4ccc(F)cc4OCc4c(F)cccc43)ccc2n1[C@H]1C[C@@H]2COCCN2C1 | 0.23 |
| C[C@H](CN1CCOCC1)n1/c(=N\C#N)[nH]c2cc(/C=C3\c4ccc(F)cc4COc4cc(F)ccc43)ccc21 | 0.79 |
| C[C@H](CN1CCOCC1)n1/c(=N\C(N)=O)[nH]c2cc(/C=C3\c4ccccc4COc4cc(F)ccc43)ccc21 [LY2623091] | 0.33 |
| N#C/N=c1/[nH]c2cc(/C=C3/c4ccc(F)cc4OCc4c(F)cccc43)ccc2n1[C@@H]1C[C@@H]2COCCN2C1 | ≤ 10 |
| N#C/N=c1/[nH]c2cc(/C=C3/c4ccc(F)cc4OCc4c(F)cccc43)ccc2n1[C@H]1C[C@H]2COCCN2C1 | ≤ 10 |
| C[C@H](CN1CCOCC1)n1/c(=N\C#N)[nH]c2cc(/C=C3/c4ccc(F)cc4OCc4c(F)cccc43)ccc21 | ≤ 10 |
| C[C@@H](CN1CCOCC1)n1/c(=N/C#N)[nH]c2cc(/C=C3/c4ccc(F)cc4OCc4c(F)cccc43)ccc21 | ≤ 10 |
| CN1C[C@H](O)[C@@H](n2/c(=N/C#N)[nH]c3cc(/C=C4\c5ccccc5COc5cc(F)ccc54)ccc32)C1 | ≤ 10 |
| CN1CCN(n2/c(=N\C#N)[nH]c3cc(/C=C4\c5ccccc5COc5cc(F)ccc54)ccc32)CC1 | 0.08 |
| N#C/N=c1\[nH]c2cc(/C=C3/c4ccc(F)cc4OCc4c(F)cccc43)ccc2n1[C@@H]1C[C@H]2COCCN2C1 | ≤ 10 |
| C[C@@H](CN1CCOCC1)n1/c(=N/C#N)[nH]c2cc(/C=C3\c4ccc(F)cc4COc4cc(F)ccc43)ccc21 | ≤ 10 |
| C[C@@H](CN1CCOCC1)n1/c(=N/C#N)[nH]c2cc(/C=C3\c4ccccc4COc4cc(F)ccc43)ccc21 | ≤ 10 |
| NC(=O)/N=c1/[nH]c2cc(/C=C3\c4ccccc4COc4cc(F)ccc43)ccc2n1[C@H]1C[C@@H]2COCCN2C1 | ≤ 10 |
